By IC50 is commonly meant the point on the concentration scale where inhibition reaches its midpoint.

One test deals with T1, hPRB (Homo sapiens, UniProt P06401).
T1 sequence (P06401 1-933): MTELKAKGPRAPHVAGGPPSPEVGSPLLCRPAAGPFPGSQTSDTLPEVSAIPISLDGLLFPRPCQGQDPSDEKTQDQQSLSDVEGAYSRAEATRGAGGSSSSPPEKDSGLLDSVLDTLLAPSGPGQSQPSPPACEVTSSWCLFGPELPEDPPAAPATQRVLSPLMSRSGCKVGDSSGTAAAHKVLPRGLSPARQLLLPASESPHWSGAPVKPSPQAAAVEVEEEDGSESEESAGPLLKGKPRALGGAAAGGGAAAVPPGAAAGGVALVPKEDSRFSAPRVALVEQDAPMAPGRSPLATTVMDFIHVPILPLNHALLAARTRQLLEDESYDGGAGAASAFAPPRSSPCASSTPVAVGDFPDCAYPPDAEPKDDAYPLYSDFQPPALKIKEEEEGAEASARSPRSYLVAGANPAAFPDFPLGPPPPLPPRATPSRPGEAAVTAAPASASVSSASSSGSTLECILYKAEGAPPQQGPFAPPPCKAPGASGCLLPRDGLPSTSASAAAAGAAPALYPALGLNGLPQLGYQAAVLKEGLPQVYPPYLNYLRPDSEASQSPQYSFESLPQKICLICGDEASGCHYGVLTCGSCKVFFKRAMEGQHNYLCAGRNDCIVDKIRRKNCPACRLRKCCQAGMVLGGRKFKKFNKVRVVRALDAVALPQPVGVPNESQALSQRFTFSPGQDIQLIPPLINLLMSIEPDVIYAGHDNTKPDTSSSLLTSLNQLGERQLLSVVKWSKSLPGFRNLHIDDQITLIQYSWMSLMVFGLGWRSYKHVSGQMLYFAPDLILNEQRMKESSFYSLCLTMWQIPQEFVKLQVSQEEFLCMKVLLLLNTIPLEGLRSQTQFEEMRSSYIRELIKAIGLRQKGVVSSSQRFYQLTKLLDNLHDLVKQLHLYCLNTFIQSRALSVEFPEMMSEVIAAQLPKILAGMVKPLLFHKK
Kind of test: PR transactivation assay (GRE2-Luc) in MDA-MB-231 iPRAB cells conditionally expressing hPRB. In kind it is cell-based. Further details: expressed in transfected cells.
Settings: not given
On the procedure:
Establishment of the MDA-MB-231 iPRAB cells.
The PR negative breast cancer cells MDA-MB-231 were routinely maintained in RPMI 1640 medium with L-glutamine enriched with 5% fetal calf serum (FCS) and supplemented with antibiotics (penicillin 100 UI/ml, streptomycin 100 μg/ml). MDA MB-231 iPRAB cells allowing the bi-inducible expression of PRA and PRB isoforms were generated in two steps. First, pZX-TR vector expressing inducer proteins required for Tet-on (Tet-Repressor) and Ecdysone receptor-based system (EcR and RXR hybrids) was engineered using pcDNA6-TR (T-REx system, Invitrogen) and pZRD (Lessard, J. Prostate 2007 67, 808) derived from Rheoswitch system (NE Biolabs). Transfection of MDA-MB-231 cells by pZX-TR (harboring zeocin resistant gene) was performed using Lipofectamine 2000 (Invitrogen). Three hundred clones resistant to Zeocin (1 μg/ml) were isolated, amplified and screened for the proper functioning of both RheoSwitch and Tet-on inducible systems by transient transfection with pGal-4-luciferase or pTO-luciferase reporter genes generated as described. Luciferase activity was determined in the absence or presence of respective inducer ligand RSL1 (diacylhydrazine, a non-steroidal agonist of ecdysone, NE Biolabs) (500 nM) or Doxycycline (Dox, a tetracyclin analog, Sigma-Aldrich) (1 μg/ml) after 24 h. The clone that produced minimal background in the absence of both RSL1 and Dox and high inducible expression level on reporter gene assays by both systems was finally selected, verified and amplified (clone 250). This cell line was then further stably transfected by PR isoforms expressing vectors specifically engineered: pGaluas-PRA (harboring neomycin resistant gene) expressing PRA under the control of Gal4 Upstream Activating Sequences upstream of a truncated CMV promoter, and pTO-PRB (harboring blasticidin resistant gene) expressing PRB under the control of TetO2 responsive elements downstream of the full CMV promoter. Clones resistant to zeocin (1 μg/ml), neomycin (500 μg/ml) and blasticidin (2 μg/ml) were then isolated, amplified and screened by Western blot for PR isoforms expression in the absence or presence of both RSL1 (500 nM) and Dox (1 μg/ml) after 24 h. […] It was used to evaluate APRn properties and was defined as MDA-MB-231 iPRAB cells conditionally expressing PRB in the presence of doxycyclin (1 μg/ml).
PR Transactivation Assays in MDA-MB-231 iPRAB Cells.
The cells were cultured in 96-well plates in RPMI 1640 medium with L-glutamine without phenol red, enriched with 5% DCC serum containing inducer ligand RSL1 (500 nM) or Dox (1 μg/ml) for PRA or PRB expression during 24 h. Cells were then transfected with GRE2-Luc (100 ng) and β-galactosidase (20 ng) plasmids during 6 h, using Lipofectamine 2000 (Invitrogen). […] Whole cell extracts were collected using lysis buffer (Promega). Luciferase and β-galactosidase activity or total protein contents (BCA assay) were determined using a luminometer (Victor 378, Perkin Elmer). Luciferase activity was normalized by β-galactosidase activity or total protein contents.
All the synthesized APRn were classified in 4 series depending on the nature of their C3 substituent (R1/R′1 groups). The first one (series 1) includes APRn with no C3 substituent (R1═R′1═H) whereas series 2, 3 and 4 are related to APRn bearing a methoxyl (R1═OMe), a hydroxyl (R1═OH) and a fluorine atom (R1═F), respectively. The agonist/antagonist activities of APRn were determined either in human HEK293T cells transiently expressing hPRB or in human MDA-MB-231 iPRAB cells conditionally expressing hPRB, by using a luciferase reporter gene placed under the control of a glucocorticoid response element (GRE2-Luc). The APRn “agonist efficacy” was determined from the luciferase activity measured in the presence of APRn (1 μM). […] The “agonist efficacy” and “antagonist efficacy” are expressed as defined in the biological protocols section.
`C[C@@H]1CCC2C3CC=C4C[C@@H](F)CC[C@]4(C)C3CC[C@]2(C)[C@H]1F` (stereo partly drawn) [APR-19, 3β,17α-Difluoro-17α-methyl-D-Homo-pregn-5-ene] yielded an IC50 of around 500 nM.
On the same count and under the same terms, next, `CC#C[C@]1(O)CCC2C3CC[C@H]4C[C@@H](F)CC[C@]4(C)C3CC[C@@]21C` (stereo partly drawn) [APR-43, 3β-Fluoro-17α-(1-propynyl)-5α-androstan-17β-ol]: around 500 nM.
Still for that read-out and setting: next, `C[C@]12CCC3C(CC=C4C[C@@H](F)CC[C@@H]43)C1CCC2=O` (stereo partly drawn) [APR-47, 3β-Fluoro-19-nor-androst-5-en-17-one]: around 500 nM; `CC#C[C@]1(O)CCC2C3CC=C4C[C@@H](F)CC[C@@H]4C3CC[C@@]21C` (stereo partly drawn) [APR-51, 3β-Fluoro-17α-(1-propynyl)-19-nor-androst-5-en-17β-ol]: around 500 nM; `CC#C[C@]1(O)CCC2C3CC[C@H]4CCCC[C@@H]4C3CC[C@@]21C` (stereo partly drawn) [APR-54, 17α-(1-Propynyl)-19-nor-5-androstan-17β-ol]: around 500 nM.

Staying with this test, now noted: dose response curves, MDA-MB-231 iPRAB cells expressing hPRB, FIG. 9; read-out: IC50.
As to `CC(=O)[C@H]1CC[C@H]2[C@@H]3CC=C4C[C@@H](F)CC[C@]4(C)[C@H]3CC[C@]12C` [APR-16, 3β-Fluoropregn-5-en-20-one], the IC50 was around 500 nM.

The values are drawn from patent US20130203718A1 (priority 2010, published 2013).
